Values of other authors, collected in patent US5756528A, “Inhibitors of farnesyl-protein transferase” (Merck & Co., Inc., priority 1996, dated 1998).

Test system: farnesyl-protein transferase
Details: via HMG-CoA reductase inhibition, background literature

| Structure (SMILES) | Indirect inhibition of farnesyl-protein transferase in vivo |
| --- | --- |
| CC[C@H](C)C(=O)O[C@H]1C[C@@H](C)C=C2C=C[C@H](C)[C@H](CC[C@@H]3C[C@@H](O)CC(=O)O3)[C@H]21 [lovastatin] | Indirect inhibition of farnesyl-protein transferase in vivo has been demonstrated |
| CC[C@H](C)C(=O)O[C@H]1CCC=C2C=C[C@H](C)[C@H](CC[C@@H]3C[C@@H](O)CC(=O)O3)[C@H]21 [compactin] | Indirect inhibition of farnesyl-protein transferase in vivo has been demonstrated |
